Tests used:
[1] = system: pigweed (Amaranthus retroflexus); assay: Test A pre-/postemergence: pigweed; assay type: in vivo
Method in brief: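 Pre: directed soil spray after planting in loam + sand. Post: same formulation (non-phytotoxic solvent + surfactant) on 1–2-leaf plants, 2–10 cm. Greenhouse ~10 d; visual injury 0–100 vs untreated.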

rice (Oryza sativa) = assay: Test B flooded paddy: rice; assay type: in vivo; settings: Flood, applied to paddy water at 2-leaf stage, visually evaluated after 13 to 15 days
Method in brief: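 Plants were grown to the 2-leaf stage and pots flooded to 3 cm above soil. Compounds were applied directly into the paddy water, with depth kept for the test. After 13–15 days in greenhouse, response was rated visually against controls on a 0 (no effect) to 100 (complete control) scale.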

[2] = system: blackgrass (Alopecurus myosuroides); assay: Test C pre-/postemergence: blackgrass; assay type: in vivo
Method in brief: (§1)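 Preemergence on seeds in loam/sand, postemergence on 2–18 cm (1–4-leaf) plants in peat-based medium; compounds in non-phytotoxic solvent with surfactant. After 13–15 days in greenhouse, visual rating versus controls, 0 (no effect) to 100 (complete control).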

[3] = system: winter wheat (Triticum aestivum); assay: Test C pre-/postemergence: winter wheat; assay type: in vivo
Method in brief: as §1

wild oat (Avena fatua) = assay: Test C pre-/postemergence: wild oat; assay type: in vivo; settings: Postemergence
Method in brief: as §1

[4] = system: galium (catchweed bedstraw, Galium aparine); assay: Test C pre-/postemergence: galium; assay type: in vivo
Method in brief: as §1

[5] = system: morningglory (Ipomoea coccinea); assay: Test C pre-/postemergence: morningglory; assay type: in vivo
Method in brief: as §1

[6] = system: nutsedge, yellow (yellow nutsedge, Cyperus esculentus); assay: Test C pre-/postemergence: nutsedge, yellow; assay type: in vivo
Method in brief: as §1

[7] = system: pigweed (Amaranthus retroflexus); assay: Test C pre-/postemergence: pigweed; assay type: in vivo
Method in brief: as §1

[8] = system: ragweed (common ragweed, Ambrosia elation); assay: Test C pre-/postemergence: ragweed; assay type: in vivo
Method in brief: as §1

Barnyardgrass = assay: Test C preemergence: barnyardgrass; assay type: in vivo, Echinochloa crus-galli
[9] = Postemergence, 125 g ai/ha, 0 to 100 scale, 0 is no effect, 100 is complete control
[10] = Postemergence, 500 g ai/ha, 0 to 100 scale, 0 is no effect, 100 is complete control
[11] = Preemergence, 125 g ai/ha, 0 to 100 scale where 0 is no effect and 100 is complete control
[12] = Preemergence, 500 g ai/ha, 0 to 100 scale (0 no effect, 100 complete control)
[13] = Postemergence, 31 g ai/ha, scale 0 to 100 (0 no effect, 100 complete control)
[14] = Postemergence, 62 g ai/ha, scale 0 to 100 (0 no effect, 100 complete control)
[15] = Postemergence, 125 g ai/ha, scale 0 to 100, 0 no effect, 100 complete control
[16] = Postemergence, 250 g ai/ha, scale 0 to 100
[17] = Preemergence, 31 g ai/ha, scale 0 (no effect) to 100 (complete control)
[18] = Preemergence, 62 g ai/ha, scale of 0 to 100, 0 is no effect, 100 is complete control
[19] = Preemergence, 125 g ai/ha, scale 0 to 100, 0 no effect, 100 complete control
[20] = Preemergence, 250 g ai/ha, scale 0 to 100, 0 no effect, 100 complete control
[21] = Postemergence, 250 g ai/ha, scale 0 to 100 (0 no effect, 100 complete control)
[22] = 31 g ai/ha, scale 0 to 100 (0 no effect, 100 complete control)
[23] = 62 g ai/ha, scale 0 to 100 (0 no effect, 100 complete control)
[24] = 125 g ai/ha, scale 0 to 100, 0 no effect, 100 complete control
[25] = 250 g ai/ha, scale 0 to 100 (0 no effect, 100 complete control)
[26] = 31 g ai/ha, scale 0 (no effect) to 100 (complete control)
[27] = 62 g ai/ha, scale of 0 to 100, 0 is no effect, 100 is complete control

CCc1nn(-c2ccc(C(F)(F)F)cc2)nc1Oc1ccnc(C(F)(F)F)c1 [Compound 169]
Plant response rating, Pigweed [1, 9]: 100 | Pigweed plant response rating [1, 10]: 100 | Plant response rating, Pigweed [1, 11]: 100 | Plant response rating, Pigweed [1, 12]: 100 | Plant response rating, Rice (0 to 100 scale, 0 is no effect, 100 is complete control) (rice (Oryza sativa); 250 g ai/ha): 55 | Plant response rating, Blackgrass [2, 13]: 5 | Plant response rating, Blackgrass [2, 14]: 15 | Plant response rating, Blackgrass [2, 15]: 35 | Plant response rating, Blackgrass [2, 16]: 50 | Plant response rating, Blackgrass [2, 17]: 80 | Plant response rating, Blackgrass [2, 18]: 90 | Plant response rating, Blackgrass [2, 19]: 95 | Plant response rating, Blackgrass [2, 20]: 95 | Plant response rating, Wheat [3, 13]: 10 | Plant response rating, Wheat [3, 14]: 10 | Plant response rating, Wheat [3, 15]: 30 | Plant response rating, Wheat [3, 21]: 30 | Plant response rating, Wheat [3, 17]: 5 | Plant response rating, Wheat [3, 18]: 15 | Plant response rating, Wheat [3, 19]: 20 | Plant response rating, Wheat [3, 20]: 50 | Plant response rating, Oat, Wild (wild oat (Avena fatua); [22]): 5 | Plant response rating, Oat, Wild (wild oat (Avena fatua); [23]): 25 | Plant response rating, Oat, Wild (wild oat (Avena fatua); [24]): 30 | Plant response rating, Oat, Wild (wild oat (Avena fatua); [25]): 50 | Plant response rating, Galium [4, 13]: 80 | Plant response rating, Galium [4, 14]: 90 | Plant response rating, Galium [4, 15]: 90 | Plant response rating, Galium [4, 21]: 95 | Plant response rating, Galium [4, 17]: 100 | Plant response rating, Galium [4, 18]: 100 | Plant response rating, Galium [4, 19]: 100 | Plant response rating, Galium [4, 20]: 100 | Plant response rating, Morningglory [5, 13]: 98 | Plant response rating, Morningglory [5, 15]: 100 | Plant response rating, Morningglory [5, 21]: 100 | Plant response rating, Morningglory [5, 17]: 25 | Plant response rating, Morningglory [5, 18]: 55 | Plant response rating, Morningglory [5, 19]: 80 | Plant response rating, Morningglory [5, 20]: 85 | Plant response rating, Nutsedge, Yellow [6, 13]: 5 | Plant response rating, Nutsedge, Yellow [6, 14]: 5 | Plant response rating, Nutsedge, Yellow [6, 15]: 10 | Plant response rating, Nutsedge, Yellow [6, 21]: 10 | Plant response rating, Nutsedge, Yellow [6, 17]: 0 | Plant response rating, Nutsedge, Yellow [6, 18]: 5 | Plant response rating, Nutsedge, Yellow [6, 19]: 5 | Plant response rating, Nutsedge, Yellow [6, 20]: 5 | Plant response rating, Pigweed [7, 13]: 95 | Plant response rating, Pigweed [7, 14]: 95 | Plant response rating, Pigweed [7, 15]: 100 | Plant response rating, Pigweed [7, 21]: 100 | Plant response rating, Pigweed [7, 17]: 100 | Plant response rating, Pigweed [7, 18]: 100 | Plant response rating, Pigweed [7, 19]: 100 | Plant response rating, Pigweed [7, 20]: 100 | Plant response rating, Ragweed [8, 13]: 40 | Plant response rating, Ragweed [8, 14]: 60 | Plant response rating, Ragweed [8, 15]: 85 | Plant response rating, Ragweed [8, 21]: 95 | Plant response rating, Ragweed [8, 17]: 15 | Plant response rating, Ragweed [8, 18]: 15 | Plant response rating, Ragweed [8, 19]: 30 | Plant response rating, Ragweed [8, 20]: 65 | Plant response rating, Barnyardgrass (Barnyardgrass; [26]): 40 | Plant response rating, Barnyardgrass (Barnyardgrass; [27]): 80 | Plant response rating, Barnyardgrass (Barnyardgrass; [24]): 98

CCCc1nn(-c2ccc(F)cc2F)nc1Oc1ccnc(C(F)(F)F)c1 [Compound 179]
Plant response rating, Pigweed [1, 9]: 100 | Pigweed plant response rating [1, 10]: 100 | Plant response rating, Pigweed [1, 11]: 100 | Plant response rating, Pigweed [1, 12]: 100 | Plant response rating, Rice (0 to 100 scale, 0 is no effect, 100 is complete control) (rice (Oryza sativa); 125 g ai/ha): 35 | Plant response rating, Blackgrass [2, 13]: 30 | Plant response rating, Blackgrass [2, 14]: 50 | Plant response rating, Blackgrass [2, 15]: 55 | Plant response rating, Blackgrass [2, 16]: 60 | Plant response rating, Blackgrass [2, 17]: 80 | Plant response rating, Blackgrass [2, 18]: 100 | Plant response rating, Blackgrass [2, 19]: 100 | Plant response rating, Blackgrass [2, 20]: 100 | Plant response rating, Wheat [3, 13]: 5 | Plant response rating, Wheat [3, 14]: 10 | Plant response rating, Wheat [3, 15]: 15 | Plant response rating, Wheat [3, 21]: 15 | Plant response rating, Wheat [3, 17]: 5 | Plant response rating, Wheat [3, 18]: 15 | Plant response rating, Wheat [3, 19]: 50 | Plant response rating, Wheat [3, 20]: 55 | Plant response rating, Oat, Wild (wild oat (Avena fatua); [22]): 10 | Plant response rating, Oat, Wild (wild oat (Avena fatua); [23]): 20 | Plant response rating, Oat, Wild (wild oat (Avena fatua); [24]): 35 | Plant response rating, Oat, Wild (wild oat (Avena fatua); [25]): 50 | Plant response rating, Galium [4, 13]: 90 | Plant response rating, Galium [4, 14]: 90 | Plant response rating, Galium [4, 15]: 90 | Plant response rating, Galium [4, 21]: 90 | Plant response rating, Galium [4, 17]: 80 | Plant response rating, Galium [4, 18]: 100 | Plant response rating, Galium [4, 19]: 100 | Plant response rating, Galium [4, 20]: 100 | Plant response rating, Morningglory [5, 13]: 65 | Plant response rating, Morningglory [5, 14]: 80 | Plant response rating, Morningglory [5, 15]: 80 | Plant response rating, Morningglory [5, 21]: 90 | Plant response rating, Morningglory [5, 17]: 5 | Plant response rating, Morningglory [5, 18]: 40 | Plant response rating, Morningglory [5, 19]: 55 | Plant response rating, Morningglory [5, 20]: 65 | Plant response rating, Nutsedge, Yellow [6, 13]: 5 | Plant response rating, Nutsedge, Yellow [6, 14]: 5 | Plant response rating, Nutsedge, Yellow [6, 15]: 10 | Plant response rating, Nutsedge, Yellow [6, 21]: 10 | Plant response rating, Nutsedge, Yellow [6, 17]: 0 | Plant response rating, Nutsedge, Yellow [6, 18]: 0 | Plant response rating, Nutsedge, Yellow [6, 19]: 0 | Plant response rating, Nutsedge, Yellow [6, 20]: 5 | Plant response rating, Pigweed [7, 13]: 95 | Plant response rating, Pigweed [7, 14]: 98 | Plant response rating, Pigweed [7, 15]: 98 | Plant response rating, Pigweed [7, 21]: 100 | Plant response rating, Pigweed [7, 17]: 100 | Plant response rating, Pigweed [7, 18]: 100 | Plant response rating, Pigweed [7, 19]: 100 | Plant response rating, Pigweed [7, 20]: 100 | Plant response rating, Ragweed [8, 13]: 50 | Plant response rating, Ragweed [8, 14]: 55 | Plant response rating, Ragweed [8, 15]: 60 | Plant response rating, Ragweed [8, 21]: 75 | Plant response rating, Ragweed [8, 17]: 40 | Plant response rating, Ragweed [8, 18]: 40 | Plant response rating, Ragweed [8, 19]: 45 | Plant response rating, Ragweed [8, 20]: 45 | Plant response rating, Barnyardgrass (Barnyardgrass; [26]): 40 | Plant response rating, Barnyardgrass (Barnyardgrass; [27]): 100 | Plant response rating, Barnyardgrass (Barnyardgrass; [24]): 100
